Format in all cases: functional
Test [1] is described as follows: Growth inhibition of human DWD cells by SRB assay. (In SRB staining, fixed cells bind dye roughly in proportion to their protein.)
The next test relates to HOP-62. Briefly: Growth inhibition of human HOP62 cells by SRB assay.
The test system of the next test is A2780. Briefly: Growth inhibition of human A2780 cells by SRB assay.
Test [2] is described as follows: Growth inhibition of human Gurav cells by SRB assay.
The test system of a further test is ZR-75-1. Briefly: Growth inhibition of human ZR-75-1 cells by SRB assay.
A further test relates to SiHa. Description: Growth inhibition of human SiHa cells by SRB assay.
For a further test, the system named is A549. Briefly: Growth inhibition of human A549 cells by SRB assay.
The test system of a further test is MCF7. Briefly: Growth inhibition of human MCF7 cells by SRB assay.
A further test relates to PC-3. Description: Growth inhibition of human PC3 cells by SRB assay.
The test system of another test is COLO 205. Briefly: Growth inhibition of human COLO205 cells by SRB assay.
The test system of the next test is KB. Description: Growth inhibition of human KB cells by SRB assay.

The structures appear in SMILES notation.

By GI50 is commonly meant the concentration that inhibits growth by half. A higher GI50 goes with lower sensitivity of the cells.

In the case of `c1ccc(-c2ccc(-c3ccc(-c4nc5ccccc5[nH]4)cc3)cc2)cc1`, the GI50 in test [1] came to 100 µM; in the test on HOP-62, 100 µM; with A2780, 32.1 µM; in [2] it was 100 µM; in the test on ZR-75-1, 100 µM; in the test with SiHa, 100 µM. In addition, the GI50 in the test on A549 came to 41.2 µM; in the test on MCF7 it was 39.2 µM; in the test on PC-3, 41.2 µM; with COLO 205, 100 µM; with KB, 39.7 µM.

In the case of `COc1ccc(-c2ccc(-c3ccc(-c4nc5c(O)cccc5[nH]4)cc3)cc2)cc1OC`, the GI50 is 1.4 µM in test [1]; 2.21 µM in the test with HOP-62; 2.71 µM with A2780; 1.11 µM in [2]; 2.11 µM in the test on ZR-75-1; 1.11 µM in the test with SiHa. For the same compound, the GI50 in the test on A549 amounted to 1.31 µM; in the test with MCF7 it was 0.19 µM; with PC-3, 1.24 µM; in the test on COLO 205, 1.32 µM; with KB it was 2.71 µM.

Turning to `Oc1cccc2[nH]c(-c3ccc(-c4ccc(-c5ccccc5)cc4)cc3)nc12`, the GI50 came out at 9.68 µM in [1]; 9.04 µM in the test on HOP-62; 41 µM in the test on A2780; 1.11 µM in test [2]; 35.6 µM in the test with ZR-75-1; 9.71 µM in the test with SiHa. For the same compound, the GI50 in the test with A549 was determined as 8.32 µM; with MCF7 it was 2.2 µM; in the test with PC-3 it was 1.24 µM; in the test on COLO 205, 1.21 µM; in the test on KB it was 4.01 µM.

For `Oc1ccc(-c2ccc(-c3ccc(-c4nc5ccccc5[nH]4)cc3)cc2)cc1`, the GI50 was 46.3 µM in test [1]; 47.2 µM in the test on HOP-62; 36 µM in the test on A2780; 100 µM in test [2]; 100 µM with ZR-75-1; 33.3 µM with SiHa. Besides, the GI50 in the test with A549 was 33.1 µM; in the test on MCF7, 30.5 µM; in the test with PC-3, 47 µM; with COLO 205 it was 100 µM; with KB it was 41 µM.

Take `Cc1ccc2[nH]c(-c3ccc(-c4ccc(-c5ccc(O)cc5)cc4)cc3)nc2c1`: the 50% growth inhibitory concentration (GI50) in test [1] is 21.2 µM; with HOP-62, 41.2 µM; with A2780, 31.2 µM; in [2], 11.3 µM; with ZR-75-1, 18.2 µM; in the test with SiHa it was 33.5 µM. The GI50 with A549 turned out to be 3.52 µM; in the test with MCF7 it was 12.1 µM; with PC-3, 30 µM; in the test on COLO 205, 100 µM; in the test on KB it was 21.2 µM.

As to `COc1ccc(-c2ccc(-c3ccc(-c4nc5ccccc5[nH]4)cc3)cc2)cc1OC`, the GI50 in [1] turned out to be 42.1 µM; with HOP-62, 4.2 µM; in the test on A2780, 21.6 µM; in test [2] it was 9.23 µM; in the test with ZR-75-1, 39.7 µM; in the test on SiHa it was 6.2 µM. The GI50 in the test with A549 stood at 7.6 µM; in the test on MCF7 it was 7.6 µM; in the test on PC-3, 47.1 µM; in the test on COLO 205 it was 41.2 µM; with KB it was 9.25 µM.

As for `COc1ccc(-c2ccc(-c3ccc(-c4nc5cc(C)ccc5[nH]4)cc3)cc2)cc1`, the GI50 in [1] is 100 µM; in the test with HOP-62, 36.3 µM; with A2780, 2.11 µM; in test [2], 9.27 µM; in the test with ZR-75-1 it was 41.1 µM; with SiHa, 21.2 µM. Besides, the GI50 was determined as 6.33 µM with A549; 3.11 µM in the test on MCF7; 100 µM in the test on PC-3; 100 µM in the test on COLO 205; 28.3 µM in the test with KB.

Take `COc1ccc(-c2ccc(-c3ccc(-c4nc5ccccc5[nH]4)cc3)cc2)cc1`: the GI50 in test [1] was found to be 100 µM; in the test on HOP-62, 100 µM; with A2780, 100 µM; in [2], 38.1 µM; with ZR-75-1, 35.1 µM; in the test with SiHa it was 2.76 µM. Further, the GI50 in the test with A549 amounted to 38.1 µM; with MCF7 it was 33.3 µM; in the test with PC-3, 100 µM; in the test with COLO 205 it was 45.2 µM; in the test on KB it was 47.2 µM.

Values taken from ChEMBL document CHEMBL1949520, “Synthesis of terphenyl benzimidazoles as tubulin polymerization inhibitors” (2012).
